Our source for the TGI values is PubChem BioAssay (NCI).

What all share (test): growth of human tumour cells (NCI), 48 h
In assay [1] the test system is RXF 393 renal.
Assay [2] has as its system UACC-257 melanoma.
The test system of assay [3] is SNB-19 CNS.
In assay [4] the test system is LOX IMVI melanoma.
Assay [5] deals with MDA-MB-435.
The subject of assay [6] is HCC-2998 colon.
The test system of assay [7] is HCT-116 colon.
The subject of assay [8] is DLD-1 colon.
The test system of assay [9] is KM20L2 colon.

The structures appear in SMILES notation.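 Step 1: Grow cells in 96-well plates. Step 2: Expose to compound for 48 hours at 5 concentrations. Step 3: Interpolate endpoints linearly; if unreached, use highest concentration. TGI is the concentration that stops growth completely.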

`CC(C)(C)c1cc(OCc2n[nH]c(=S)n2N)c(Cl)cc1OCc1n[nH]c(=S)n1N`: the TGI in assay [1], in assay [2], in assay [3], in [4], in assay [5] and in assay [6] was greater than 100 µM throughout. Further, the TGI in assay [7] is greater than 100 µM.
Take `CC(C)(Cl)C(Cl)CC/C(CBr)=C(\Cl)CBr` (centres undefined): the TGI amounted to 3.78 µM in [1]; 5.09 µM in [2]; 29.2 µM in [3]; 0.72 µM in assay [4]; 5.34 µM in assay [5]; 21.6 µM in [6]. The compound also showed a TGI in assay [7] of 5.89 µM.
For the compound `[O-][N+]1=C(c2ccccc2)/C(=C2/C(c3ccccc3)=[N+]([O-])c3ccccc32)Cc2ccccc21`, the TGI worked out at 53.1 µM in assay [1]; 40.9 µM in assay [2]; 44.3 µM in [3]; 34.5 µM in [4]; 55.1 µM in assay [5]; 29.5 µM in assay [6]. The same compound came in with a TGI in assay [7] of 31.4 µM.
Take `O=S1(=O)OCCOS(=O)(=O)C1(Br)Br`: the TGI in assay [8], in [2], in assay [3], in [6] and in [7] was greater than 100 µM throughout.
In the case of `CC(=O)c1sc2c(c1OC(=O)c1ccccc1)c(=O)n(-c1ccccc1)c(=S)n2-c1ccccc1`, the TGI in assay [1] is 7.21 µM; in assay [2] it was greater than 23.9 µM; in [3], greater than 47.8 µM; in assay [4], 5.26 µM; in assay [5], 28.9 µM; in assay [6], 45.4 µM. Besides, the TGI in assay [7] is 34.2 µM.
In the case of `O=c1[nH]nc(-c2ccccc2)n1-n1cccc1`, the TGI in [1], in [2], in [3], in [4], in [5] and in assay [6] was greater than 100 µM throughout. Further, the TGI in assay [7] is greater than 100 µM.
Take `O=C(Cn1c2ccc(Br)cc2c2nc3ccccc3nc21)N1CCOCC1`: the TGI in assay [1] was 98.9 µM; in assay [2] it was greater than 100 µM; in assay [3], greater than 100 µM; in assay [4] it was greater than 100 µM; in assay [5], greater than 100 µM; in assay [6], greater than 100 µM. The same compound yielded a TGI in [7] greater than 100 µM.
Turning to `O=c1[nH]c(Br)nc2n[nH]nc12`, the TGI in assay [1], in assay [2], in [3], in assay [4], in [5] and in [6] was greater than 100 µM in each case. In addition, the TGI in assay [7] was greater than 100 µM.
For `c1cc2cc(Cc3ccc4[nH]ccc4c3)ccc2[nH]1`, the TGI in assay [1] turned out to be 37.7 µM; in assay [2], 57.7 µM; in [3], 47.5 µM; in [4], 72.3 µM; in assay [5] it was 45.7 µM; in [6], 28.8 µM. Also, the TGI in assay [7] stood at 33.1 µM.
On to `COc1cccc(C2c3cc4c(cc3OC(NNC(N)=O)C2C)OCO4)c1OC` (centres undefined), for which the TGI in [1] is 49.9 µM; in [2], 92.1 µM; in assay [3], greater than 100 µM; in [4] it was 45.6 µM; in [5] it was 70.1 µM; in [6] it was greater than 100 µM. In assay [7], this compound returned a TGI of 27.6 µM.
As for `Cc1ccc(/C=C2\CCS(=O)(=O)c3ccccc3C2=O)cc1`, the TGI in assay [1] stood at 44.2 µM; in assay [2] it was 35.1 µM; in assay [3], 36.5 µM; in assay [4] it was 30.8 µM; in assay [5] it was 55.2 µM; in [6], 28.9 µM. For the same compound, in assay [7], the TGI came out at 26.1 µM.
On to `CC(c1ccccc1)n1c2ccccc2c2c(N)ncnc21` (centres undefined), for which the TGI in [1] is 33.5 µM; in assay [2], 31.2 µM; in assay [3], 33.8 µM; in [4], 33.1 µM; in assay [5], 31 µM; in assay [6], 34.5 µM. The same compound registered a TGI in [7] of 38.5 µM.
Turning to `COC(=O)N1C2C(C[C@@]1(C)C(=O)OC)c1ccccc1N2S(=O)(=O)c1ccccc1` (some centres undefined), the TGI in assay [1], in assay [2], in assay [3], in assay [4], in assay [5] and in [6] was greater than 100 µM each time. Moreover, the TGI in [7] is greater than 100 µM.
As to `CCOC(OCC)[C@@H]1C[C@@H]2N(O[C@H](OC3CCCC3(c3ccccc3)c3ccccc3)[C@H](OC(C)=O)[C@@]2(CC)Cc2ccc(OC)c(OC)c2)O1` (some centres undefined), the TGI in [1], in assay [2], in assay [3], in assay [4], in assay [5] and in [6] was greater than 100 µM throughout. For the same compound, the TGI in assay [7] is greater than 100 µM.
As to `O=C(N/N=C\c1ccc(Cl)cc1)Nc1cccc2ccccc12`, the TGI in assay [1] was 9.99 µM; in assay [2], greater than 100 µM; in assay [3], 5.64 µM; in [4], greater than 100 µM; in assay [5], 6.67 µM; in assay [6], greater than 100 µM. Also, in assay [7], the TGI is greater than 23.2 µM.
Regarding `CCOC(=O)C12CCC(c3c(C)cccc3C)(O1)C(C(=O)OC)=C2C(=O)OC` (centres undefined), the TGI in assay [1] was greater than 10 µM; in assay [2], 8.15 µM; in assay [3], greater than 10 µM; in assay [4] it was greater than 7.87 µM; in [5], 2.27 µM; in [6] it was greater than 10 µM. Further, the TGI in [7] was greater than 10 µM.
Turning to `Cc1nc2c(n1Cc1ccc(F)cc1)C(=O)c1ccccc1C2=O`, the TGI in assay [1] is 87.3 µM; in [2], greater than 100 µM; in assay [3] it was greater than 100 µM; in assay [4], greater than 100 µM; in [6], greater than 100 µM; in assay [9], greater than 100 µM. In assay [7], this compound showed a TGI greater than 100 µM.
For the compound `O=[N+]([O-])c1ccc(C2NC(=S)NC3c4cc([N+](=O)[O-])ccc4CCCC23)cc1` (centres undefined), the TGI was 45.2 µM in assay [1]; greater than 100 µM in [2]; greater than 100 µM in assay [3]; greater than 100 µM in [4]; greater than 100 µM in assay [5]; greater than 100 µM in assay [6]. This compound also registered a TGI in assay [7] greater than 100 µM.
